This note sets out measurements from patent publication US12629358B2, “Compound used as RET kinase inhibitor and application thereof” (TYK MEDICINES, INC., priority 2019, dated 2026).

Data set [1] addresses wild-type RET kinase (Homo sapiens, UniProt P07949). The data set can be described thus: Enzyme activity test against wild-type RET kinase (33P-ATP filter-binding kinase activity assay). It counts as biochemical. The following applies: ATP Km concentration, 10 concentrations. As to the method:
A biological activity test experiment was conducted below for some compounds of the above Examples and Comparative Example.
[…]. The biological activity screening of the compounds will be determined repeatedly at 10 concentrations.
Each sample was prepared into a solution with a concentration of 10 mM.
The test compound was dissolved in 100% dimethyl sulfoxide to a specific concentration. Integra Viaflo Assist was used to assist DMSO for (continuous) dilution.
Kinase was added to the newly prepared basic reaction buffer
Adding any desired cofactors to the substrate solution.
Adding wild-type RET kinase into the substrate solution and gently mixing;
Acoustic technology (Echo 550; Nanoliter range) was used to feed the compounds in 100% of dimethyl sulfoxide into the kinase reaction mixture and incubated at room temperature for 20 minutes.
33P-ATP (specific activity 10 Ci/l) was added to the reaction mixture to start the reaction.
Incubated at room temperature for 2 hours
Radioactivity was detected by filter-binding method.
Kinase activity data was expressed as the percentage of remaining kinase activity in the test sample compared to the vehicle (dimethyl sulfoxide) reaction. Prism (GRAPHPAD software) was used to obtain IC50 value and curve-fitting.

A short description of data set [2]: Metabolism test of drugs: plasma pharmacokinetics after intravenous and intragastric administration. The following applies: male, rat, SD rats, PO, 10 mg/kg, plasma. It counts as in vivo. As to the method: Four small molecule compounds of BLU-667, compound C2, compound C4 and compound C8 were administered to SD rats by intravenous and intragastric administration respectively. Blood samples were collected at different time points to determine the concentration of drugs in plasma after administration and calculate the related pharmacokinetics parameters.
The vehicle of BLU-667, C2, C4 and C8 was 10% NMP+49% PEG400+1% Tween80+40% Water. The specific preparation method was as follows: proper amount of tested samples was weighed, dissolved in 10% NMP+49% PEG400+1% Tween80+40% Water, mixed well by vortex for later use.
LC-MS/MS was used by the analysis department of the experimental organization to detect and analyze the prepared solution of sample for test.
Healthy male SD rats were used in this research. Animal weight: 150-200 g. All animals fasted before administration, and resumed feeding 4 hours after administration.
Time points for blood collection were: • Intravenous administration (groups 1, 3 and 5): 0.0833, 0.25, 0.5, 1, 2, 4, 8, 12 and 24 hours after administration. (±2 min at time point ≤2 hr, ±15 min at other points.) • Oral administration: (groups 2, 4, 6 and 7): 0.25, 0.5, 1, 2, 4, 8, 12 and 24 hours after administration. (±2 m at time point […] at other points.)
About 0.1 mL of blood was collected from each animal through jugular vein every time, and EDTA or heparin sodium was used as anticoagulant. Blood samples were collected and placed on ice, and plasma was separated by centrifugation (centrifugation conditions: 5000 r/min, 6 min, 4° C.).
LC-MS/MS was used by the analysis department of the experimental organization to analyze the plasma samples of rats.
According to the data of blood drug concentration of the drug, the pharmacokinetic parameters AUC0→t, AUC0→∞, MRT0→∞, CMax, TMax, Vss, F, CL and T1/2 as well as their mean and standard deviation of the samples for test were calculated respectively by pharmacokinetic calculation software WinNonlin non-compartment model.
The main pharmacokinetic parameters of BLU-667, compound C2, compound C4 and compound C8 in plasma after intravenous and single oral administration of BLU-667, compound C2, compound C4 and compound C8 in SD rats were shown in Table 3

Data set [3] addresses T1, Ba/F3-KIF5B-RET-V804M cells (Homo sapiens, UniProt P07949, V804M).
T1 construct: host or cells: Ba/F3 (BaF3 from RIKEN BRC CELL BANK); the other entry of the earlier key: KIF5B (P33176, Kinesin-1 heavy chain)
T1 sequence (P07949 713-1063 V804M limits assumed): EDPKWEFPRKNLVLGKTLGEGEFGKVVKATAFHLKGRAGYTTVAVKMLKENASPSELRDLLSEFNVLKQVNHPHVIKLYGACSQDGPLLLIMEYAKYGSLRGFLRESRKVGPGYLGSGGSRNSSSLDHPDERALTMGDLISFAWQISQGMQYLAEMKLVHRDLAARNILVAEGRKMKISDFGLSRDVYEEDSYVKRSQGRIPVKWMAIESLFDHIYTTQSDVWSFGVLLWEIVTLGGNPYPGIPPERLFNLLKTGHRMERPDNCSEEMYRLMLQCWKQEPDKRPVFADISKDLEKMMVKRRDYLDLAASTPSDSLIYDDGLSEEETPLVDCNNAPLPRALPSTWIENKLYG
As to the kind of experiment: Cell anti-proliferation experiment (CellTiter-Glo), Ba/F3-KIF5B-RET-V804M. It is filed as cell-based. Particulars: cell viability, 72 h. On the procedure:
(§1) Ba/F3-KIF5B-RET, Ba/F3-KIF5B-RET-V804L and Ba/F3-KIF5B-RET-V804M cells were constructed by PreceDo Pharmaceuticals Co., Ltd.
(§2) Ba/F3-KIF5B-RET, Ba/F3-KIF5B-RET-V804L and Ba/F3-KIF5B-RET-V804M medium: RPMI-1640+10% FBS+1% P/S.
(§3) A 1000× solution of the compound was prepared with DMSO, the compound was diluted to 20 times final concentration with a growth medium, and […] was added.
(§4) The suspended cells were rotated downward, resuscitated in the growth medium, and then counted with a cell counter. The cell suspension was diluted to the desired concentration in the growth medium. 95p L cell suspension was fed to a 96-well plate. 5 μL of 20× compound was added to the […], and the final DMSO concentration per well was 0.1%; incubated at 37° C. with 5% CO2 for 72 h
(§5) The plate was equilibrated to room temperature before measurement, 50 μl of CellTiter-Glo® reagent was added into each well, mixed on a shaker for 2 minutes, incubated at room temperature for 10 minutes, and recorded with Paradigm.
(§6) Cell viability was analyzed using Graphpad 7.0 software according to the formula Cell viability (CV %)=(RLU compound−RLU blank)/(RLU control−RLU blank)*100%, and the corresponding IC50 data were calculated as shown in Table 2
(In ATP-based viability assays light output follows the ATP content of the culture.)

For data set [4], the target named is T2, Ba/F3-KIF5B-RET cells (Homo sapiens, UniProt P07949).
T2 construct: host or cells: Ba/F3 (BaF3 from RIKEN BRC CELL BANK); the other entry of the earlier key: KIF5B (P33176, Kinesin-1 heavy chain)
T2 sequence (P07949 713-1063 limits assumed): T1 sequence (P07949 713-1063 V804M limits assumed) with M92V
As to the kind of experiment: Cell anti-proliferation experiment (CellTiter-Glo), Ba/F3-KIF5B-RET. Particulars: cell viability, 72 h. It counts as cell-based. On the procedure: as §1, §2, §3, §4, §5, §6

The target in data set [5] is T3, Ba/F3-KIF5B-RET-V804L cells (Homo sapiens, UniProt P07949, V804L).
T3 construct: host or cells: Ba/F3 (BaF3 from RIKEN BRC CELL BANK); the other entry of the earlier key: KIF5B (P33176, Kinesin-1 heavy chain)
T3 sequence (P07949 713-1063 V804L limits assumed): T1 sequence (P07949 713-1063 V804M limits assumed) with M92L
The data set can be described thus: Cell anti-proliferation experiment (CellTiter-Glo), Ba/F3-KIF5B-RET-V804L. The following applies: cell viability, 72 h. It counts as cell-based. As to the method: as §1, §2, §3, §4, §5, §6

Numbering of substitutions follows the chain as printed.

wild-type RET kinase, sequence (P07949 29-1114): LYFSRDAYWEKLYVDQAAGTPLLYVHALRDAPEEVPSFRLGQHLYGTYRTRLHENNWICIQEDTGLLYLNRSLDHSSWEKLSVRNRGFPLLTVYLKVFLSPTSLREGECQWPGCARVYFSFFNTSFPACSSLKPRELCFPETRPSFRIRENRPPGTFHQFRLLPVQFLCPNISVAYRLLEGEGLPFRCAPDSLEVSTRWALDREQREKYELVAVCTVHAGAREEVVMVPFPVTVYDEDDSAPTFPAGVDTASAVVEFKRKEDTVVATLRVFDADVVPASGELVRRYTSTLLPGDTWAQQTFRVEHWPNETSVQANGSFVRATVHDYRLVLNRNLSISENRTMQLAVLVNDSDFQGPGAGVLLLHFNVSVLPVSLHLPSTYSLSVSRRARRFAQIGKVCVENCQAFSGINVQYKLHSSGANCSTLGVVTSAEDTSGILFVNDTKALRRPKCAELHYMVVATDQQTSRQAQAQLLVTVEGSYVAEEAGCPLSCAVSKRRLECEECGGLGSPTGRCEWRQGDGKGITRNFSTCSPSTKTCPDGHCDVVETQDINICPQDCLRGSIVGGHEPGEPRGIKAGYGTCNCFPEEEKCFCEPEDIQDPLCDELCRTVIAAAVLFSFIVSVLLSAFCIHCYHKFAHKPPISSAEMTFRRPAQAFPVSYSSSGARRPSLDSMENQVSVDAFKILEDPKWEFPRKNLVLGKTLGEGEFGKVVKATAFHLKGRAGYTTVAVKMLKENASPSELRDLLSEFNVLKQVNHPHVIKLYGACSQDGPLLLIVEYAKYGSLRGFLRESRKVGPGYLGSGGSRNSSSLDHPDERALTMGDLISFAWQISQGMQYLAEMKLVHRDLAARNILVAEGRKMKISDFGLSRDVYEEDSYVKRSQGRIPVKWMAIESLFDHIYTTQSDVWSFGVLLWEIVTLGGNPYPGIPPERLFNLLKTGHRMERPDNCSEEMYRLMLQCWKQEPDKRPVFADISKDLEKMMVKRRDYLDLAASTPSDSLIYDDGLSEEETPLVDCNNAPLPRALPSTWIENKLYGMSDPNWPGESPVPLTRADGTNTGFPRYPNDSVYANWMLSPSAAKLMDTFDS

For `COC1(C(=O)N[C@@H](C)c2ccc(-n3cc(F)cn3)nc2)CC=C(c2ccc(C#N)c(Nc3cc(C)[nH]n3)n2)CC1` (stereo partly shown) [Comparative Example C32, reference compound], the “Wild-RET IC50” value in data set [1] was “no activity”.
The compound `CO[C@]1(C(=O)N[C@@H](C)c2ccc(-n3cc(F)cn3)nc2)CC[C@@H](c2nc(Nc3cc(C)[nH]n3)ccc2C#N)CC1` [Compound C1] gave an IC50 in data set [1] of 146 nM.
In data set [1], `CO[C@]1(C(=O)N[C@@H](C)c2ccc(-n3cc(F)cn3)nc2)CC[C@@H](c2nc(Nc3cc(C)[nH]n3)cc3cccnc32)CC1` [Compound C3] came in with a concentration for half-maximal inhibition (IC50) of 241 nM. This IC50 is about 1.7-fold higher than that of the compound before.
As for `CO[C@]1(C(=O)N[C@@H](C)c2ccc(-n3cc(F)cn3)nc2)CC[C@@H](c2nc(Nc3cc(C)[nH]n3)cc3c2N(C)CCC3)CC1` [Compound C5], in data set [1], the IC50 is 100 nM.
Same read-out and setting: the result for `CO[C@]1(C(=O)N[C@@H](C)c2ccc(-n3cc(F)cn3)nc2)CC[C@H](c2nc(Nc3cc(C)[nH]n3)cc3c2N(C)CCC3)CC1` [Compound C6] reads 3.53 nM.
As for `COC1(C(=O)N[C@@H](C)c2ccc(-n3cc(F)cn3)nc2)CC=C(c2nc(Nc3cc(C)[nH]n3)ccc2C#N)CC1` (stereo partly shown) [Compound C7], in data set [1], the 50% inhibitory concentration (IC50) stood at 5.34 nM.
`COC1(C(=O)N[C@@H](C)c2ccc(-n3cc(F)cn3)nc2)CC=C(c2nc(Nc3cc(C)[nH]n3)cc3cccnc23)CC1` (stereo partly shown) [Compound C8] showed an IC50 in data set [1] of 1.53 nM. Also, in data set [2], the AUC(0-inf) stood at 2830 ng·h/mL, the exposure AUC(0-t) was found to be 2800 ng·h/mL, the highest concentration (Cmax) turned out to be 824 ng/mL and the Tmax is 2 h. The same compound showed a half-life in data set [2] of 1.95 h. Further, the MRT in data set [2] (read-out: MRTINF_ obs) amounted to 2.85 h.
Consider `CO[C@]1(C(=O)N[C@@H](C)c2ccc(-n3cc(F)cn3)nc2)CC[C@H](c2nc(Nc3cc(C)[nH]n3)c(F)cc2C#N)CC1` [Compound C9], for which, in data set [1], the IC50 stood at 3.38 nM.
On the same count and under the same terms, the result for `CO[C@]1(C(=O)N[C@@H](C)c2ccc(-n3cc(F)cn3)nc2)CC[C@@H](c2nc(Nc3cc(C)[nH]n3)c(F)cc2C#N)CC1` [Compound C10] reads 262 nM; that for `COC1(C(=O)N[C@@H](C)c2ccc(-n3cc(F)cn3)nc2)CC=C(c2nc(Nc3cc(C)[nH]n3)c(F)cc2C#N)CC1` (stereo partly shown) [Compound C11], 17.4 nM.
Same read-out and setting: the result for `COC1(C(=O)N[C@@H](C)c2ccc(-n3cc(F)cn3)nc2)CC=C(c2nc(Nc3cc(C)[nH]n3)cnc2C#N)CC1` (stereo partly shown) [Compound C12] reads 16.1 nM.
In data set [1], `CO[C@]1(C(=O)N[C@@H](C)c2ccc(-n3cc(F)cn3)nc2)CC[C@H](c2nc(Nc3cc(C)[nH]n3)cnc2C#N)CC1` [Compound C13] came in with an IC50 of 2.08 nM.
For the compound `CO[C@]1(C(=O)N[C@@H](C)c2ccc(-n3cc(F)cn3)nc2)CC[C@H](c2nc(Nc3cc(C)[nH]n3)cc3nccnc32)CC1` [Compound C14], the concentration for half-maximal inhibition (IC50) in data set [3] worked out at 109 nM; in data set [4], 54.1 nM; in data set [5], 46.8 nM.
Take `CO[C@]1(C(=O)N[C@@H](C)c2ccc(-n3cc(F)cn3)nc2)CC[C@H](c2nc(Nc3cc(C)[nH]n3)c3ccccc3n2)CC1` [Compound C15]: the results for the IC50 in data set [3], in data set [4] and in data set [5] were 7.4 nM, 4.6 nM and 2.8 nM, respectively.
In data set [1], `CO[C@]1(C(=O)N[C@@H](C)c2ccc(-n3cc(F)cn3)nc2)CC[C@@H](c2nc(Nc3cc(C)[nH]n3)cc(C)c2C#N)CC1` [Compound C16] yielded an IC50 of 180 nM.
Regarding `CO[C@]1(C(=O)N[C@@H](C)c2ccc(-n3cc(F)cn3)nc2)CC[C@H](c2nc(Nc3cc(C)[nH]n3)cc(C)c2C#N)CC1` [Compound C17], in data set [1], the IC50 was 1.26 nM.
On to `CO[C@]1(C(=O)N[C@@H](C)c2ccc(-n3cc(F)cn3)nc2)CC[C@H](c2nc(Nc3cc(C)[nH]n3)cc3c2C(=O)NCC3)CC1` [Compound C18], for which the IC50 in data set [1] is 1.52 nM.
Take `CO[C@]1(C(=O)N[C@@H](C)c2ccc(-n3cc(F)cn3)nc2)CC[C@@H](c2nc(Nc3cc(C)[nH]n3)cc3c2C(=O)NCC3)CC1` [Compound C19]: the 50% inhibitory concentration (IC50) in data set [1] amounted to 64.7 nM.
Consider `CO[C@]1(C(=O)N[C@@H](C)c2ccc(-n3cnc(Cl)n3)nc2)CC[C@H](c2nc(Nc3cc(C)[nH]n3)cc3cccnc32)CC1` [Compound C24], for which the IC50 amounted to 182 nM in data set [3], 95.1 nM in data set [4] and 84 nM in data set [5].
Regarding `CO[C@]1(C(=O)N[C@@H](C)c2cnc(-n3cc(F)cn3)cn2)CC[C@H](c2nc(Nc3cc(C)[nH]n3)cc3cccnc32)CC1` [Compound C26], the IC50 was determined as 7.9 nM in data set [3], 5.2 nM in data set [4] and 2.9 nM in data set [5].
For `CO[C@]1(C(=O)N[C@@H](C)c2ccc(-n3cc(F)cn3)nn2)CC[C@H](c2nc(Nc3cc(C)[nH]n3)cc3cccnc32)CC1` [Compound C27], the IC50 was determined as 51.9 nM in data set [3], 29.4 nM in data set [4] and 23 nM in data set [5].
In the case of `CO[C@]1(C(=O)N[C@@H](C)c2ccc(-n3cnc(C)n3)nc2)CC[C@H](c2nc(Nc3cc(C)[nH]n3)cc3cccnc32)CC1` [Compound C29], the values for the IC50 in data set [3], in data set [4] and in data set [5] were 252 nM, 146 nM and 118 nM, respectively.

Broadly, the IC50 is the concentration that inhibits the measured activity by half. A lower IC50 goes with inhibition by little substance. One may read the AUC(0-inf) as total exposure, with the tail of the curve extrapolated. Higher therefore signals more exposure. As a reminder, the AUC(0-t) is exposure summed from dosing to a finite time, without extrapolation to infinity. Read a high AUC(0-t) as high exposure. The term Cmax denotes the peak of the concentration-time curve. One may read the Tmax as the time at which the peak concentration occurs. Broadly, the half-life is how long it takes for the measured level to halve. High values mean slow decline, low ones rapid decline.
